In the CheMixHub viscosity set:

Assay: xn = mol fraction of the nth substance listed

COCCOCCOC + CCCCCCC
viscosity [mPa·s], 101.33 kPa
Details	x1 = 0.0978	x1 = 0.197	x1 = 0.2958	x1 = 0.3834	x1 = 0.4946	x1 = 0.594	x1 = 0.6956	x1 = 0.7955	x1 = 0.8992
298.15 K	0.407	0.436	0.471	0.508	0.562	0.619	0.689	0.768	0.871
303.15 K	0.386	0.412	0.444	0.478	0.527	0.58	0.643	0.714	0.807
308.15 K	0.367	0.39	0.421	0.451	0.5	0.545	0.602	0.668	0.751
313.15 K	0.351	0.371	0.398	0.426	0.468	0.513	0.566	0.627	0.7
318.15 K	0.333	0.354	0.378	0.404	0.443	0.484	0.532	0.587	0.656

ClC(Cl)C(Cl)Cl + CCCCCCC
303.15 K, 101 kPa
Details	viscosity [mPa·s]
x1 = 0.1397	0.398
x1 = 0.2476	0.472
x1 = 0.3744	0.564
x1 = 0.4722	0.643
x1 = 0.5731	0.727
x1 = 0.6565	0.8
x1 = 0.7428	0.896
x1 = 0.8309	1.023
x1 = 0.9008	1.165
x1 = 0.9406	1.267

COC(=O)OC + CCCCCCCC
298.15 K, 101.3 kPa
Details	viscosity [mPa·s]
x1 = 0.0701	0.503
x1 = 0.1113	0.495
x1 = 0.2006	0.483
x1 = 0.2669	0.476
x1 = 0.2955	0.476
x1 = 0.4863	0.481
x1 = 0.6318	0.494
x1 = 0.6706	0.499
x1 = 0.7712	0.517
x1 = 0.8602	0.543
x1 = 0.9459	0.569

COCCOCCOC + CCCCCCCC
viscosity [mPa·s], 101.33 kPa
Details	x1 = 0.0946	x1 = 0.203	x1 = 0.2985	x1 = 0.3956	x1 = 0.4955	x1 = 0.5945	x1 = 0.697	x1 = 0.7972	x1 = 0.8977
298.15 K	0.515	0.535	0.561	0.594	0.636	0.681	0.748	0.807	0.884
303.15 K	0.485	0.503	0.536	0.557	0.593	0.636	0.686	0.746	0.82
308.15 K	0.458	0.475	0.501	0.523	0.556	0.596	0.641	0.695	0.762
313.15 K	0.432	0.448	0.473	0.493	0.524	0.559	0.604	0.65	0.712
318.15 K	0.41	0.425	0.446	0.466	0.493	0.523	0.575	0.61	0.667

ClC(Cl)C(Cl)Cl + CCCCCCCC
303.15 K, 101 kPa
Details	viscosity [mPa·s]
x1 = 0.1642	0.536
x1 = 0.2409	0.562
x1 = 0.3162	0.61
x1 = 0.3944	0.655
x1 = 0.4996	0.725
x1 = 0.5896	0.794
x1 = 0.6696	0.864
x1 = 0.7658	0.976
x1 = 0.8847	1.167
x1 = 0.9045	1.208

COCCOCCOC + CCCCCCCCC
viscosity [mPa·s], 101.33 kPa
Details	x1 = 0.0991	x1 = 0.2003	x1 = 0.3005	x1 = 0.3982	x1 = 0.5023	x1 = 0.5963	x1 = 0.6999	x1 = 0.7997	x1 = 0.897
298.15 K	0.642	0.64	0.665	0.691	0.712	0.747	0.794	0.836	0.898
308.15 K	0.559	0.56	0.579	0.6	0.618	0.647	0.685	0.718	0.768
318.15 K	0.49	0.49	0.507	0.523	0.538	0.561	0.591	0.62	0.662

ClC(Cl)C(Cl)Cl + CCCCCCCCC
303.15 K, 101 kPa
Details	viscosity [mPa·s]
x1 = 0.1552	0.651
x1 = 0.2636	0.704
x1 = 0.3332	0.742
x1 = 0.3926	0.77
x1 = 0.5196	0.836
x1 = 0.5976	0.879
x1 = 0.6903	0.943
x1 = 0.7468	0.991
x1 = 0.8858	1.163
x1 = 0.9204	1.235

COCCOCCOC + CCCCCCCCCC
viscosity [mPa·s], 101.33 kPa
Details	x1 = 0.1008	x1 = 0.2018	x1 = 0.3025	x1 = 0.3984	x1 = 0.4993	x1 = 0.6592	x1 = 0.701	x1 = 0.7987	x1 = 0.9013
298.15 K	0.798	0.788	0.787	0.79	0.8	0.834	0.846	0.869	0.915
308.15 K	0.689	0.682	0.679	0.68	0.688	0.716	0.726	0.746	0.784
318.15 K	0.597	0.59	0.589	0.589	0.597	0.618	0.627	0.643	0.674

COCCOCCOC + CCCCCCCCCCCC
viscosity [mPa·s], 101.33 kPa
Details	x1 = 0.1009	x1 = 0.1998	x1 = 0.2993	x1 = 0.4034	x1 = 0.5021	x1 = 0.6015	x1 = 0.7024	x1 = 0.8008	x1 = 0.9003
298.15 K	1.236	1.157	1.11	1.074	1.043	1.02	1.001	0.981	0.98
308.15 K	1.038	0.976	0.94	0.909	0.884	0.865	0.849	0.837	0.835
318.15 K	0.88	0.83	0.801	0.78	0.757	0.743	0.728	0.72	0.719

COCCOCCOC + CCCCCCCCCCCCCC
viscosity [mPa·s], 101.33 kPa
Details	x1 = 0.0987	x1 = 0.2023	x1 = 0.302	x1 = 0.4002	x1 = 0.5033	x1 = 0.594	x1 = 0.6981	x1 = 0.7958	x1 = 0.8986
298.15 K	1.835	1.672	1.55	1.448	1.345	1.275	1.187	1.113	1.044
308.15 K	1.503	1.38	1.29	1.205	1.122	1.068	0.996	0.938	0.888
318.15 K	1.248	1.153	1.07	1.009	0.945	0.902	0.848	0.8	0.76
